Reference: patent US8178694B2, “Heterocyclylaminoalkyl substituted benzimidazoles” (Tibotec Pharmaceuticals Ltd., priority 2005, dated 2012)

Key:
[1] = system: Respiratory Syncytial Virus; experiment: In vitro screening for activity against Respiratory Syncytial Virus (tetrazolium-based colorimetric assay, HeLa cells); format: cell-based; settings: human respiratory syncytial virus, 168 h; protection against cytopathology caused by RSV in HeLa cells, MTT readout seven days after infection
Excerpt: The percent protection against cytopathology caused by viruses (antiviral activity or EC50) achieved by tested compounds and their cytotoxicity (CC50) are both calculated from dose-response curves. The selectivity of the antiviral effect is represented by the selectivity index (SI), calculated by dividing the CC50 (cytotoxic dose for 50% of the cells) by the EC50 (antiviral activity for 50% of the cells).
Automated tetrazolium-based colorimetric assays were used for determination of EC50 and CC50 of test compounds. Flat-bottom, 96-well plastic microtiter trays were filled with 180 μl of Eagle's Basal Medium, supplemented with 5% FCS (0% for FLU) and 20 mM Hepes buffer. Subsequently, stock solutions (7.8× final test concentration) of compounds were added in 45 μl volumes to a series of triplicate wells so as to allow simultaneous evaluation of their effects on virus- and mock-infected cells. Five five-fold dilutions were made directly in the microtiter trays using a robot system. Untreated virus controls, and HeLa cell controls were included in each test. Approximately 100 TCID50 of Respiratory Syncytial Virus was added to two of the three rows in a volume of 50 μl. The same volume of medium was added to the third row to measure the cytotoxicity of the compounds at the same concentrations as those used to measure the antiviral activity. After two hours of incubation, a suspension (4×10^5 cells/ml) of HeLa cells was added to all wells in a volume of 50 μl. The cultures were incubated at 37° C. in a 5% CO2 atmosphere. Seven days after infection the cytotoxicity and the antiviral activity was examined spectrophotometrically. To each well of the microtiter tray, 25 μl of a solution of MTT (3-(4,5-dimethylthiazol-2-yl)-2,5-diphenyltetrazolium bromide) was added. The trays were further incubated at 37° C. for 2 hours, after which the medium was removed from each cup. Solubilization of the formazan crystals was achieved by adding 100 μl 2-propanol. Complete dissolution of the formazan crystals were obtained after the trays have been placed on a plate shaker for 10 min. Finally, the absorbances were read in an eight-channel computer-controlled photometer (Multiskan MCC, Flow Laboratories) at two wavelengths (540 and 690 nm). The absorbance measured at 690 nm was automatically subtracted from the absorbance at 540 nm, so as to eliminate the effects of non-specific absorption.

EC50 [1] | melting point | SMILES
0.0316 µM |  | Cc1ccc(O)c(Cn2c(NCCCN3CCOCC3)nc3ccc(CNc4cccnc4CCO)cc32)n1 [c-3]
0.2 µM |  | OCCc1ncccc1NCc1ccc2nc(NCCCN3CCOCC3)n(Cc3ncccc3O)c2c1 [e-1]
0.447 µM | 142 °C | OCCc1ccncc1NCc1ccc2nc(NCCCN3CCOCC3)n(Cc3ncccc3O)c2c1 [h-3]
0.0501 µM | 207 °C | Cc1ccc(O)c(Cn2c(NCCCN3CCOCC3)nc3ccc(CNc4cnccc4CCO)cc32)n1 [g-3]
